Reference: ChEMBL document CHEMBL4433250, “Structure-based design of potent linear peptide inhibitors of the YAP-TEAD protein-protein interaction derived from the YAP omega-loop sequence” (Bioorg Med Chem Lett, 2019)
Activity calls are given as the source filed them. No cut-off for these calls is given here. Where a SMILES comes first, the peptide text is derived from it. [ ]: non-standard residue; d: D form. Trp(6-Cl) = N[C@@H](Cc1c[nH]c2cc(Cl)ccc12)C(=O)O; Phe(3-F) = N[C@@H](Cc1cccc(F)c1)C(=O)O; 1Nal = N[C@@H](Cc1cccc2ccccc12)C(=O)O; Hyp = O=C(O)[C@@H]1C[C@@H](O)CN1; Cba = N[C@@H](CC1CCC1)C(=O)O; Nle = CCCC[C@H](N)C(=O)O; Ac3c = NC1(C(=O)O)CC1

Tests used:
[1] = biological target: T1, Transcriptional enhancer factor TEF-3 (Homo sapiens, UniProt Q15561); experiment: Inhibition of human TEAD4 (217 to 434 residues) expressed in Escherichia coli BL21 (DE3) interaction with N-biotinylated YAP (60 to 100 residues) incubated for 2 hrs by TR-FRET assay
[2] = biological target: T1, Transcriptional enhancer factor TEF-3; experiment: Inhibition of TEAD4 in human SF268 ::MCAT-Luc RGA model cells up to 20 uM by YAP/TEAD-dependent luciferase reporter gene assay
[3] = biological target: T1, Transcriptional enhancer factor TEF-3; experiment: Binding affinity to Avi-tagged human TEAD4 (217 to 434 residues) expressed in Escherichia coli BL21 (DE3) by SPR assay

T1 sequence (Q15561 whole entry, the tested form may be a part): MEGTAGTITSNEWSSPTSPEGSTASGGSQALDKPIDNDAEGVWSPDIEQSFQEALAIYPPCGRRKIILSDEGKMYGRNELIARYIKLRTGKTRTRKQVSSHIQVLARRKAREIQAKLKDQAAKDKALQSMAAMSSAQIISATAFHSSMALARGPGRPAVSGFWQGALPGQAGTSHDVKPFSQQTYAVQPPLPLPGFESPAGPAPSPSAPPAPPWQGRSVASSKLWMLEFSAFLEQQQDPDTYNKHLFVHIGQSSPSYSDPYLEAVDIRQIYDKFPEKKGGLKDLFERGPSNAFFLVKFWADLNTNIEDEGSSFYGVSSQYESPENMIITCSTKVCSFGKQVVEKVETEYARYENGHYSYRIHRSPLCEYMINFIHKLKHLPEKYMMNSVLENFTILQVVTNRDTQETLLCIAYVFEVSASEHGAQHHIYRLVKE

Row | Molecule | IC50 [1] | inhibition [2] | Kd [3]
1 | CC(C)C[C@H](NC(=O)[C@H](CCCNC(=N)N)NC(=O)[C@H](Cc1c[nH]c2cc(Cl)ccc12)NC(=O)[C@@H]1CCCN1)C(=O)N[C@@H](CCCNC(=N)N)C(=O)N[C@@H](CCCCN)C(=O)N[C@@H](CC1CCC1)C(=O)N1CCC[C@H]1C(=O)N[C@@H](CC(=O)O)C(=O)N[C@@H](CO)C(=O)N[C@@H](Cc1ccccc1)C(=O)N[C@@H](Cc1cccc2ccccc12)C(=O)N[C@@H](CCCCN)C(=O)N1CCC[C@H]1C(=O)N1CCC[C@H]1C(=O)O (H-P[Trp(6-Cl)]RLRK[Cba]PDSF[1Nal]KPP-OH) | 216 nM |  | 
2 | CCCC[C@H](NC(=O)[C@H](CCCCN)NC(=O)[C@H](CCCNC(=N)N)NC(=O)[C@H](CC(C)C)NC(=O)[C@H](CCCNC(=N)N)NC(=O)[C@H](Cc1c[nH]c2cc(Cl)ccc12)NC(=O)[C@@H]1CCCN1)C(=O)N1CCC[C@H]1C(=O)N[C@@H](CC(=O)O)C(=O)N[C@@H](CO)C(=O)N[C@@H](Cc1ccccc1)C(=O)N[C@@H](Cc1cccc2ccccc12)C(=O)N[C@@H](CCCCN)C(=O)N1CCC[C@H]1C(=O)N1CCC[C@H]1C(=O)O (H-P[Trp(6-Cl)]RLRK[Nle]PDSF[1Nal]KPP-OH) | 409 nM |  | 
3 | CCCC[C@H](NC(=O)[C@@H]1CCCN1)C(=O)N[C@@H](CCCNC(=N)N)C(=O)N[C@@H](CC(C)C)C(=O)N[C@@H](CCCNC(=N)N)C(=O)N[C@@H](CCCCN)C(=O)N[C@@H](CC(C)C)C(=O)N1CCC[C@H]1C(=O)N[C@@H](CC(=O)O)C(=O)N[C@@H](CO)C(=O)N[C@@H](Cc1ccccc1)C(=O)N[C@@H](Cc1ccccc1)C(=O)N[C@@H](CCCCN)C(=O)N1CCC[C@H]1C(=O)N1CCC[C@H]1C(=O)O (H-P[Nle]RLRKLPDSFFKPP-OH) | 67700 nM |  | 
4 | CCCC[C@H](NC(=O)[C@H](CCCCN)NC(=O)[C@H](CCCNC(=N)N)NC(=O)[C@H](CC(C)C)NC(=O)[C@H](CCCNC(=N)N)NC(=O)[C@H](Cc1c[nH]c2cc(Cl)ccc12)NC(=O)[C@@H]1CCCN1)C(=O)N1CCC[C@H]1C(=O)N[C@@H](CC(=O)O)C(=O)N[C@@H](CO)C(=O)N[C@@H](Cc1ccccc1)C(=O)N[C@@H](Cc1ccccc1)C(=O)N[C@@H](CCCCN)C(=O)N1CCC[C@H]1C(=O)N1CCC[C@H]1C(=O)O (H-P[Trp(6-Cl)]RLRK[Nle]PDSFFKPP-OH) | 1560 nM |  | 
5 | N=C(N)NCCC[C@H](NC(=O)[C@H](Cc1c[nH]c2cc(Cl)ccc12)NC(=O)[C@@H]1CCCN1)C(=O)NC1(C(=O)N[C@@H](CCCNC(=N)N)C(=O)N[C@@H](CCCCN)C(=O)N[C@@H](CC2CCC2)C(=O)N2C[C@H](O)C[C@H]2C(=O)N[C@@H](CC(=O)O)C(=O)N[C@@H](CO)C(=O)N[C@@H](Cc2ccccc2)C(=O)N[C@@H](Cc2cccc3ccccc23)C(=O)N[C@@H](CCCCN)C(=O)N[C@@H](CCC(=O)O)C(=O)N2CCC[C@H]2C(=O)O)CC1 (H-P[Trp(6-Cl)]R[Ac3c]RK[Cba][Hyp]DSF[1Nal]KEP-OH) | 9 nM |  | 
6 | CCCC[C@H](NC(=O)[C@H](CCCCN)NC(=O)[C@H](CCCNC(=N)N)NC(=O)[C@H](CC(C)C)NC(=O)[C@H](CCCNC(=N)N)NC(=O)[C@H](Cc1c[nH]c2cc(Cl)ccc12)NC(=O)[C@@H]1CCCN1)C(=O)N1CCC[C@H]1C(=O)N[C@@H](CC(=O)O)C(=O)N[C@@H](CO)C(=O)N[C@@H](Cc1cccc(F)c1)C(=O)N[C@@H](Cc1ccccc1)C(=O)N[C@@H](CCCCN)C(=O)N1CCC[C@H]1C(=O)N1CCC[C@H]1C(=O)O (H-P[Trp(6-Cl)]RLRK[Nle]PDS[Phe(3-F)]FKPP-OH) | 2400 nM |  | 
7 | H-PMRLRKLPDSFFKPP-OH | 70000 nM |  | 
8 | CC(C)C[C@H](NC(=O)[C@H](CCCNC(=N)N)NC(=O)[C@H](Cc1c[nH]c2cc(Cl)ccc12)NC(=O)[C@@H]1CCCN1)C(=O)N[C@@H](CCCNC(=N)N)C(=O)N[C@@H](CCCCN)C(=O)N[C@@H](CC(C)C)C(=O)N1CCC[C@H]1C(=O)N[C@@H](CC(=O)O)C(=O)N[C@@H](CO)C(=O)N[C@@H](Cc1ccccc1)C(=O)N[C@@H](Cc1ccccc1)C(=O)N[C@@H](CCCCN)C(=O)N1CCC[C@H]1C(=O)N1CCC[C@H]1C(=O)O (H-P[Trp(6-Cl)]RLRKLPDSFFKPP-OH) | 5830 nM |  | 
9 | H-PWRLRKLPDSFFKPP-OH | 24200 nM |  | 
10 | CC(C)C[C@H](NC(=O)[C@H](CCCNC(=N)N)NC(=O)[C@H](Cc1c[nH]c2cc(Cl)ccc12)NC(=O)[C@@H]1CCCN1)C(=O)N[C@@H](CCCNC(=N)N)C(=O)N[C@@H](CCCCN)C(=O)N[C@@H](CC1CCC1)C(=O)N1CCC[C@H]1C(=O)N[C@@H](CC(=O)O)C(=O)N[C@@H](CO)C(=O)N[C@@H](Cc1ccccc1)C(=O)N[C@@H](Cc1cccc2ccccc12)C(=O)N[C@@H](CCCCN)C(=O)N[C@@H](CCC(=O)O)C(=O)N1CCC[C@H]1C(=O)O (H-P[Trp(6-Cl)]RLRK[Cba]PDSF[1Nal]KEP-OH) | 45 nM |  | 
11 | CC(C)C[C@H](NC(=O)[C@H](CCCNC(=N)N)NC(=O)[C@H](Cc1c[nH]c2cc(Cl)ccc12)NC(=O)[C@@H]1CCCN1)C(=O)N[C@@H](CCCNC(=N)N)C(=O)N[C@@H](CCCCN)C(=O)N[C@@H](CC1CCC1)C(=O)N1C[C@H](O)C[C@H]1C(=O)N[C@@H](CC(=O)O)C(=O)N[C@@H](CO)C(=O)N[C@@H](Cc1ccccc1)C(=O)N[C@@H](Cc1cccc2ccccc12)C(=O)N[C@@H](CCCCN)C(=O)N[C@@H](CCC(=O)O)C(=O)N1CCC[C@H]1C(=O)O (H-P[Trp(6-Cl)]RLRK[Cba][Hyp]DSF[1Nal]KEP-OH) | 16 nM | inactive | 25 nM
